{"source": "paper PMC10251509", "about": "“Ultrafast Fragment Screening Using Photo-Hyperpolarized (CIDNP) NMR” (Journal of the American Chemical Society, 2023)", "key": {"[1]": {"molecular_target": "T1, PIN1 (Homo sapiens, UniProt Q13526)", "T1 construct": "polyhistidine (N); made in house; host or cells: Escherichia coli BL21 (DE3)", "T1 sequence (Q13526 whole entry)": "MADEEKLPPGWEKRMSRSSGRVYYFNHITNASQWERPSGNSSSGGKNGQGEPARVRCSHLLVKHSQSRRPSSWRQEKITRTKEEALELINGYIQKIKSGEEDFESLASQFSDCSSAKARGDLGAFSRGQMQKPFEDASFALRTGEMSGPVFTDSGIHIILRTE", "experiment": "saturation transfer difference (STD) NMR, PIN1", "assay_type": "binding", "design": "key to STD: The observation of ligand signals in the STD NMR spectra detects a protein–ligand interaction; (+); the absence of a signal fails to detect protein–ligand interaction (−)", "settings": "200 μM ligand with 20 μM protein", "description": "For comparison, the signal decay during a T1ρ NMR experiment was measured at the same sample conditions as the photo-CIDNP experiments (Table 2). The signal decay between two T1ρ relaxation delays of 10 and 400 ms is measured in the absence and presence of the PIN1 protein. The increase in signal decay is calculated as the ratio of the integral’s ratio, i.e., (Γ400ms/Γ10ms)PL/(Γ400ms/Γ10ms)L. The most affine binders, compounds 1 and 13, show a significant reduction of the T1ρ decay ratio upon PIN1 addition, witnessing an increase in the relaxation decay. […] The signal-to-noise of the T1ρ spectra were ca. 300 for a number of transients of 512, corresponding to a measurement time of 25 min, while the photo-CIDNP experiments provided a signal-to-noise of ca. 100 for a single-scan experiment corresponding to a two second’s experiment. […] The signal-to-noise of the STD NMR experiments[1] was only 25 and 19 for compounds 1 and 13, respectively, after 50 min measurement corresponding to a 512 transient’s experiment.\nFor the control binding experiments using ligand-induced chemical shift perturbation analysis, standard [^15N, ^1H]-HSQC spectra were measured. The detailed conditions for the 2D experiments acquired at 600 MHz ^1H NMR frequency were the 100 μM ^15N-labeled PDZ2 domain in the absence and presence of equimolar peptide in PDZ2 buffer and at a temperature of 298 K and 50 μM ^15N-labeled PIN1 in the absence and presence of 200 μM ligands in PIN1 buffer and at a temperature of 298 K, respectively. Typically, 220 (t1,max (^15N) = 47.6 ms) × 1024 (t2,max (^1H) = 60.8 ms) complex points, an interscan delay of 0.8 s, and 12 scans per increment were measured. The data was zero–filled to 2048 points in the direct proton dimension and to 256 points in the ^15N–dimension. Processing was done with a shifted cosine window function for both dimensions. […] The spinlock times were set at 10 and 400 ms. The STD experiments were measured at 298 K with 16,384 (tmax (^1H) = 974 ms) complex points and 512 scans per increment. The on-resonance saturation pulse was set at 0 ppm, and the off-resonance saturation pulse was set to 40 ppm with a saturation time of 1 s."}, "[2]": {"molecular_target": "T1, PIN1", "experiment": "[15N,1H]-HSQC hit validation (chemical shift perturbations) on 15N-labeled PIN1", "assay_type": "binding", "settings": "50 μM 15N-labeled PIN1, 200 μM fragment", "description": "As proposed in the theoretical part, the photo-CIDNP traces were recorded in the presence and absence of PIN1. The peak intensity and chemical shifts were analyzed pairwise to identify the hits. […] The reference apo-PIN1 sample was spiked with 1.9 μL of DMSO to compensate for the DMSO that is introduced upon fragment addition, as the fragments are stored in stock solutions of 5 mM 90% DMSO-d6 and 10% D2O.\nFor the control binding experiments using ligand-induced chemical shift perturbation analysis, standard [^15N, ^1H]-HSQC spectra were measured. […] Processing was done with a shifted cosine window function for both dimensions. […] The spinlock times were set at 10 and 400 ms."}}, "data": [{"molecule": "Cc1cccc(-c2nc(C)c(C(=O)O)[nH]2)c1", "note": "[Compound 13, reference compound]", "values": [{"measurement": "STD", "setting": "[1]", "result": "+"}, {"measurement": "STD NMR observation", "setting": "[1]; 512 transients", "result": "shows a signal"}, {"measurement": "fragment-induced CSPs in [15N,1H]-HSQC", "setting": "[2]", "result": "strong CSPs"}, {"measurement": "median CSP", "setting": "[2]; median only of signals showing CSP", "result": 0.119}]}]}
